Results from ChEMBL document CHEMBL1158220, “New prenylated quinones from Peperomia galioides” (J Nat Prod, 1996).
The source made the active and inactive calls. No cut-off for these calls is given here.

Experiments:
Assay type in all cases: functional, organism-based
Trypanosoma cruzi [1] = test: Antiparasitic activity against Trypanosoma cruzi Y trypomastigotes assessed as lysis of parasite after 24 hrs
Leishmania amazonensis [2] = test: Antiparasitic activity against Leishmania amazonensis assessed as lysis of parasite at 5 ug/mL
Leishmania braziliensis [3] = test: Antiparasitic activity against Leishmania braziliensis assessed as lysis of parasite at 5 ug/mL
Leishmania donovani [4] = test: Antiparasitic activity against Leishmania donovani assessed as lysis of parasite at 5 ug/mL
Leishmania braziliensis [5] = test: Antiparasitic activity against Leishmania braziliensis assessed as lysis of parasite at 100 ug/mL
Leishmania braziliensis [6] = test: Antiparasitic activity against Leishmania braziliensis at 25 ug/mL
Leishmania donovani [7] = test: Antiparasitic activity against Leishmania donovani assessed as lysis of parasite at 100 ug/mL
Leishmania amazonensis [8] = test: Antiparasitic activity against Leishmania amazonensis at 25 ug/mL
Leishmania amazonensis [9] = test: Antiparasitic activity against Leishmania amazonensis assessed as lysis of parasite at 100 ug/mL
Leishmania donovani [10] = test: Antiparasitic activity against Leishmania donovani at 25 ug/mL
Trypanosoma cruzi [11] = test: Antiparasitic activity against Trypanosoma cruzi Y trypomastigotes assessed as lysis of parasite at 250 ug/mL after 24 hrs

## CC(C)=CCCC1(C)C=CC2=C(O1)C(=O)C(C)=C(CC=C(C)C)C2=O (stereo not given)
Trypanosoma cruzi [1]
  Activity: inactive

## N=C(N)c1ccc(OCCCCCOc2ccc(C(=N)N)cc2)cc1
Leishmania amazonensis [2]
  Activity: Active
Leishmania braziliensis [3]
  Activity: Active
Leishmania donovani [4]
  Activity: Active

## CC(C)=CCC/C(C)=C/CC1=C(O)C(=O)C(C)(CC=C(C)C)CC1=O (stereo not given)
Leishmania braziliensis [5]
  Activity: Active
Leishmania braziliensis [6]
  Activity: Active
Leishmania donovani [7]
  Activity: Active
Leishmania amazonensis [8]
  Activity: Active
Leishmania amazonensis [9]
  Activity: Active
Trypanosoma cruzi [1]
  Activity: inactive
Leishmania donovani [10]
  Activity: Active

## CN(C)c1ccc(C(=C2C=CC(=[N+](C)C)C=C2)c2ccc(N(C)C)cc2)cc1
Trypanosoma cruzi [11]
  Activity: Active

## MEGLUMINE ANTIMONATE
Leishmania braziliensis [5]
  Activity: 40%
Leishmania donovani [7]
  Activity: 40%
Leishmania amazonensis [9]
  Activity: 40%
